Here are results for 1 compound from paper PMC5991393, “Pharmacokinetic properties of a novel inosine analog, 4′-cyano-2′-deoxyinosine, after oral administration in rats” (PLoS ONE, 2018).

A short description of data set [1]: Pharmacokinetic study of SK14-061a after oral and intravenous administration in rats. To be noted: 1 mg/kg. The data set is classed as in vivo. The procedure:
(§1) Rats were fasted for 12 h but with free access to water before dosing. Rats were orally (p.o.) administered a SK14-061a solution at a dose of 1 mg/kg. At stipulated times after the administration (15 min, 45 min, 90 min, 3, 4.5, 6 and 9 hr), venous blood samples were collected from tail vein using a heparinized syringe (0.25ml). The blood samples were centrifuged (3,000 rpm, 10 min) to obtain plasma. Urine samples were collected in a metabolic cage for 9 hr after the administration of the SK14-061a solution. After obtaining the last blood sample, all rats were sacrificed and kidneys and liver collected. To determine the time-dependent tissue distribution of SK14-061a, rats were sacrificed and organs (kidneys and liver) were collected at 1 and 3 hr after the oral administration of SK14-061a at a dose of 1 mg/kg. To calculate bioavailability, plasma concentrations of SK14-061a after intravenous administration (1 mg/kg) were also obtained at 3 min, 15 min, 30 min, 1, 3, 6 and 9 hr. Before the LC-MS analysis, plasma samples that were collected for pharmacokinetic studies were treated in the same manner as described in the "Validation assays" section. A portion of the liver and kidney tissues (about 500 mg) were homogenized in water (1 mL). The homogenized samples were subsequently ultracentrifuged at 100,000 g for 1 hr, and the supernatant collected. Urine samples were centrifuged (3,000 rpm, 10 min) and the supernatants were used in the analyses. All samples derived from organs and urine were processed using a Waters Oasis MCX 96 well plate in the same manner as was used for the plasma samples before the LC-MS analysis. All data are expressed as the mean ± S.D. Statistical analyses for multiple comparisons were determined by an analysis of variance (two-way ANOVA) using the Bonferroni correction for multiple comparisons. A probability value of p < 0.05 was considered to be significant. A non-compartment model was used for the pharmacokinetic analysis. Parameters were calculated using the program of a moment analysis developed by Tabata et al. Half-life (t1/2) were calculated from the elimination phase. Area under the concentration-time curve (AUC) were calculated using the following equations: AUC=∫0∞Cdt

Data set [2] in a line: Tissue distribution to liver and kidney after oral administration. It counts as in vivo. To be noted: rats, p.o., 1 mg/kg. As to the method:
as §1, with “analysis.” for “analysis. All data are expressed as the mean ± S.D. Statistical analyses for multiple comparisons were determined by an analysis of variance (two-way ANOVA) using the Bonferroni correction for multiple comparisons. A probability value of p < 0.05 was considered to be significant. A non-compartment model was used for the pharmacokinetic analysis. Parameters were calculated using the program of a moment analysis developed by Tabata et al. Half-life (t1/2) were calculated from the elimination phase. Area under the concentration-time curve (AUC) were calculated using the following equations: AUC=∫0∞Cdt”

Data set [3] in a line: Metabolism assay in vitro with rat liver microsomes. The data set is classed as in vitro ADME. Conditions: 100 ng/ml, 0.2 mg/ml rat liver microsomal protein, 60 min, 37°C. The procedure: SK14-061a (100 ng/ml) was incubated with the incubation mixtures (0.1 M potassium phosphate buffer (pH 7.4), 10 mM MgCl2, 1 mM EDTA, 1 mM NADP+, 10 mM glucose-6-phosphate, 10 units/ml glucose-6-phosphate dehydrogenase, and 0.2 mg/ml of rat liver microsomal protein). After a 5 min pre-incubation of the incubation mixture at 37°C, the metabolic reactions were initiated by the addition of SK14-061a. After 60 min, the SK14-061a was extracted from the incubation samples using the SPE method, and the SK14-061a concentration determined by LC-MS.

Like-named read-outs stand apart in the source and are kept apart here.

In data set [1] (rat, plasma, iv, rats), `N#C[C@]1(CO)O[C@@H](n2cnc3c(O)ncnc32)C[C@@H]1O` [SK14-061a, 4′-cyano-2′-deoxyinosine] gave a half-life of 3.01 ± 1.48 h, a maximum concentration (Cmax) of 431 ± 36.3 ng/mL, an MRT of 3.58 ± 1.86 h and a clearance of 34.7 mL/min/kg. In addition, the exposure (AUC) in data set [1] (rat, plasma, iv, rats, i.v., read-out: AUC) is 475 ± 82.2 ng·h/mL. Also, the bioavailability in data set [1] (rat, plasma, oral, rats, p.o. vs i.v., read-out: F (bioavailability)) is approximately 65%. In data set [1] (rat, plasma, po), this compound showed an apparent clearance (CL/F) of 55.3 mL/min/kg, a Cmax of 48.8 ± 11.8 ng/mL and an MRT of 5.47 ± 1.52 h. The half-life in data set [1] (rat, plasma, po, rats, alone (ETV (-))) is approximately 3.6 h. Also, in data set [1] (rat, plasma, po, rats, p.o., alone (ETV (-)), read-out: AUC), the AUC turned out to be 308 ± 49.7 ng·h/mL. Moreover, the Tmax in data set [1] (rat, plasma, po, rats, p.o., alone (ETV (-)), read-out: tmax) is 1.3 h. Moreover, in data set [1] (rats, p.o. vs i.v.), the “MAT (mean absorption time)” value amounted to 1.89 h. In addition, in data set [1] (rats, p.o., alone (ETV (-))), the AUC came out at 308 ± 49.7 ng·h/mL and the Tmax turned out to be 1.29 ± 0.34 h. Moreover, the “distribution to liver compared with kidney” value in data set [2] is given as “distributed at higher levels to the liver than the kidney”. Further, in data set [2] (sampled at 1, 3 and 9 hr), the “time of maximum distribution in the kidney” value turned out to be 1 h and the “time of maximum distribution in the liver” value was 1 h. In data set [3], the “non-metabolized form detected after incubation with rat microsomes” value turned out to be 73.7 ± 10.7%.
